In publication PMC8163982, “Partial agonism improves the anti-hyperglycaemic efficacy of an oxyntomodulin-derived GLP-1R/GCGR co-agonist” (Molecular Metabolism, 2021):
Where a SMILES comes first, the peptide text is derived from it. [ ]: non-standard residue; d: D form. Aib = CC(C)(N)C(=O)O

Key:
GLP-1R = GLP-1R (Homo sapiens, UniProt P43220); assay: NanoBiT mini-Gs recruitment to GLP-1R-SmBiT in HEK293T cells; type: cell-based; details: SRB103 pair, mean ± SEM, n = 6
Procedure: The assay was performed as previously described. […] (gifts from Professor Nevin Lambert, Medical College of Georgia) or 0.05 μg of GLP-1R-SmBiT and 0.05 μg of LgBiT-β-arrestin-2 (Promega) plus 0.9 μg of pcDNA3.1 for 24 h. The cells were detached with EDTA, resuspended in HBSS, and furimazine (Promega) was added at a 1:50 dilution from the manufacturer's pre-prepared stock. After dispensing into 96-well white plates, a baseline read of the luminescent signals was serially recorded for 5 min using a FlexStation 3 instrument at 37 °C before the indicated concentration of ligand was added, after which the signals were repeatedly recorded for 30 min. […] Bias was calculated using two approaches. First, the log max/EC50 method was used, with the ratio of Emax to EC50 from 3-parameter fits for each ligand used to quantify agonism. After log10 transformation, responses were expressed relative to the reference agonist on a per assay basis to obtain Δlog(Emax/EC50) for each pathway. Pathway-specific values were then expressed relative to each other to obtain ΔΔlog(Emax/EC50), that is, the log bias factor. Second, a method derived from kinetic curve fitting was used. Here, kinetic responses for a single maximal agonist concentration were normalised at each time point to the vehicle response prior to curve fitting. […]

SNAP-GLP-1R = target: T1, SNAP-GLP-1R (Homo sapiens, UniProt P43220); assay: GLP-1R internalisation by DERET in HEK293-SNAP-GLP-1R cells; type: cell-based; details: average response of last 3 time points of 30 min, mean ± SEM, n = 5, read-out: DERET (HEK293-SNAP-GLP-1R) pEC50 (converted)
T1 construct: expressed in transfected cells
Procedure: The assay was performed as previously described. HEK-SNAP-GLP-1R cells were labelled using 40 nM of SNAP-Lumi4-Tb in complete medium for 60 min at room temperature. After washing, the cells were resuspended in HBSS containing 24 μM of fluorescein and dispensed into 96-well white plates. A baseline read was serially recorded for 5 min using a FlexStation 3 instrument at 37 °C in TR-FRET mode using the following settings: λex at 340 nm, λem at 520 and 620 nm, auto cut-off, delay of 400 μs, and integration time of 1500 μs? Ligands were then added, after which the signals were repeatedly recorded for 30 min. The fluorescence signals were expressed ratiometrically after first subtracting signals from wells containing 24 μM of fluorescein but no cells. Internalisation was quantified as the AUC relative to the individual well baseline, and concentration-response curves were generated with Prism 8.0.

[1] = Pharmacokinetic study in mice (plasma radioimmunoassay); type: in vivo, mouse; details: 0.5 mg/kg IP
Procedure: The mice were administered 0.5 mg/kg of peptide via IP injection. Four h after injection, blood was acquired by venesection into lithium heparin-coated microvette tubes (Sarstedt, Germany). In a separate study, male Sprague Dawley rats (average weight 250 g, obtained from Charles River) were administered 4 mg/kg of peptide SC mixed in aqueous ZnCl2 solution to a molar ratio of 0.7:1 (peptide:ZnCl2), and blood was collected by venesection at several time points up to 72 h. Plasma was separated by centrifugation at 10,000 g for 8 min at 4 °C. Plasma concentrations were assessed by radioimmunoassay using an in-house assay as previously described using standard curves generated from each SRB103 peptide to ensure that equivalent recovery was obtained.

GCGR = GCGR (Homo sapiens, UniProt P47871); assay: NanoBiT β-arrestin-2 recruitment to GCGR-SmBiT in HEK293T cells; type: cell-based; design: expressed in transfected cells; host or cells: HEK293T; details: SRB103 pair, mean ± SEM, n = 6; for Emax: HEK-293T, normalised to full agonist response, read-out: GCGR βarr2 (HEK293T) Emax; for EC50: 3-parameter fit, read-out: GCGR βarr2 (HEK293T) pEC50 (converted)
GCGR, sequence (P47871 26-477): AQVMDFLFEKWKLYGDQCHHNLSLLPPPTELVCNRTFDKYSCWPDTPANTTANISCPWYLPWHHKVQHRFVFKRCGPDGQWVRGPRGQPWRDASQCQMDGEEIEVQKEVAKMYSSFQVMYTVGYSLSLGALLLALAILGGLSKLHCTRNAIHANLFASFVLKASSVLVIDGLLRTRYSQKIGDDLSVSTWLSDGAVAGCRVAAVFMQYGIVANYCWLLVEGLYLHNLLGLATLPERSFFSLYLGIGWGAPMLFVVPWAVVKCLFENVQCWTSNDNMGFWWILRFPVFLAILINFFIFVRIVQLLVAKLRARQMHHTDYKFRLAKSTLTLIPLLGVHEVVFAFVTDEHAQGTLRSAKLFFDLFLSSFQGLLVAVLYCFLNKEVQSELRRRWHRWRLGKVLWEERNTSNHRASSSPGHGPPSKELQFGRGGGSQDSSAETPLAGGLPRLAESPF

GLP-1R, sequence (P43220 24-463): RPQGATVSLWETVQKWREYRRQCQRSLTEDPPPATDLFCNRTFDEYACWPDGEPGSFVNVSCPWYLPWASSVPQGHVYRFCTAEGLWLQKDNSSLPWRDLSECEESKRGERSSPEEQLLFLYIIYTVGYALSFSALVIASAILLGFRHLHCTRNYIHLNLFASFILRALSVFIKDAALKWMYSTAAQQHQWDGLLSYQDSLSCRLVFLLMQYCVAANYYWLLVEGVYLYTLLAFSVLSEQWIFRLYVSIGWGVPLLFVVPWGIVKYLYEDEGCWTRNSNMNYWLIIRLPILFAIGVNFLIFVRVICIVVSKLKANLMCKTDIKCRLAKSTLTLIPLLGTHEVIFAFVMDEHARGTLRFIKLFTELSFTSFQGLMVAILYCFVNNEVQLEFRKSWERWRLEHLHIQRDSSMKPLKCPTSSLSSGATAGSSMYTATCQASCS
T1 sequence (P43220 24-463): as above

| SMILES | Emax (GLP-1R; HEK-293T, normalised to globally fitted maximum response) [%] | EC50 (GLP-1R; 3-parameter fit, read-out: GLP-1R mini-Gs (HEK293T) pEC50 (converted)) [nM] | EC50 (SNAP-GLP-1R) [nM] | Plasma concentration 4 h after a single dose [1] | Emax (GCGR) [%] | EC50 (GCGR) [nM] |
| --- | --- | --- | --- | --- | --- | --- |
| CC[C@H](C)[C@H](NC(=O)[C@H](Cc1ccccc1)NC(=O)[C@H](CCC(=O)O)NC(=O)[C@H](CCC(N)=O)NC(=O)[C@H](C)NC(=O)[C@H](CCCNC(=N)N)NC(=O)[C@H](CCCCN)NC(=O)[C@H](C)NC(=O)[C@H](CC(=O)O)NC(=O)[C@H](CC(C)C)NC(=O)[C@H](Cc1ccc(O)cc1)NC(=O)[C@H](CCCCN)NC(=O)[C@H](CO)NC(=O)[C@H](Cc1ccc(O)cc1)NC(=O)[C@H](CC(=O)O)NC(=O)[C@H](CO)NC(=O)[C@@H](NC(=O)[C@H](Cc1ccccc1)NC(=O)[C@@H](NC(=O)CNC(=O)[C@H](Cc1c[nH]cn1)NC(=O)C(C)(C)NC(=O)[C@@H](N)Cc1c[nH]cn1)[C@@H](C)O)[C@@H](C)O)C(=O)N[C@@H](CCC(=O)O)C(=O)N[C@@H](Cc1c[nH]c2ccccc12)C(=O)N[C@@H](CC(C)C)C(=O)N[C@@H](CC(C)C)C(=O)N[C@@H](C)C(=O)NCC(=O)N[C@@H](Cc1c[nH]cn1)C(=O)N[C@@H](Cc1c[nH]cn1)C(=O)N[C@@H](Cc1c[nH]cn1)C(=O)N[C@@H](Cc1c[nH]cn1)C(=O)N[C@@H](Cc1c[nH]cn1)C(=O)N1CCC[C@H]1C(=O)N[C@@H](CO)C(=O)N[C@@H](Cc1c[nH]c2ccccc12)C(=O)O [SRB103H] (H-H[Aib]HGTFTSDYSKYLDAKRAQEFIEWLLAGHHHHHPSW-OH) | 103 ± 4 | 79.4 | 20 | the same | 100 | 31.6 |
| CC[C@H](C)[C@H](NC(=O)[C@H](Cc1ccccc1)NC(=O)[C@H](CCC(=O)O)NC(=O)[C@H](CCC(N)=O)NC(=O)[C@H](C)NC(=O)[C@H](CCCNC(=N)N)NC(=O)[C@H](CCCCN)NC(=O)[C@H](C)NC(=O)[C@H](CC(=O)O)NC(=O)[C@H](CC(C)C)NC(=O)[C@H](Cc1ccc(O)cc1)NC(=O)[C@H](CCCCN)NC(=O)[C@H](CO)NC(=O)[C@H](Cc1ccc(O)cc1)NC(=O)[C@H](CC(=O)O)NC(=O)[C@H](CO)NC(=O)[C@@H](NC(=O)[C@H](Cc1ccccc1)NC(=O)[C@@H](NC(=O)CNC(=O)[C@H](CCC(N)=O)NC(=O)C(C)(C)NC(=O)[C@@H](N)Cc1c[nH]cn1)[C@@H](C)O)[C@@H](C)O)C(=O)N[C@@H](CCC(=O)O)C(=O)N[C@@H](Cc1c[nH]c2ccccc12)C(=O)N[C@@H](CC(C)C)C(=O)N[C@@H](CC(C)C)C(=O)N[C@@H](C)C(=O)NCC(=O)N[C@@H](Cc1c[nH]cn1)C(=O)N[C@@H](Cc1c[nH]cn1)C(=O)N[C@@H](Cc1c[nH]cn1)C(=O)N[C@@H](Cc1c[nH]cn1)C(=O)N[C@@H](Cc1c[nH]cn1)C(=O)N1CCC[C@H]1C(=O)N[C@@H](CO)C(=O)N[C@@H](Cc1c[nH]c2ccccc12)C(=O)O [SRB103Q] (H-H[Aib]QGTFTSDYSKYLDAKRAQEFIEWLLAGHHHHHPSW-OH) |  |  | 20 |  | 77 ± 2 | 50.1 |
